Measured values: ChEMBL document CHEMBL5131439, “Triproamide and Pemukainalides, Cyclic Depsipeptides from the Marine Cyanobacterium Symploca hydnoides” (J Nat Prod, 2022)
Starred links: 1 amine or outer side, 2 acyl side, 3 side chain; linkers in the order of their positions; H or OH if unused. Non-standard residues stand in square brackets, D forms with d. Residues, ends and D or L forms follow the SMILES beside them. X1 = C[C@H](Cc1ccccc1)[C@H](N[*:1])C(=O)[*:2]; X2 = CC(C)[C@@H](N[*:1])[C@@H](C)C(=O)[*:2]; dNMeV = CN[C@@H](C(=O)O)C(C)C; dHiv = CC(C)[C@@H](O)C(=O)O; Lac = C[C@H](O)C(=O)O

What follows are molecules tested on MOLT-4 (assay: Cytotoxicity against human MOLT-4 cells assessed as reduction in cell viability incubated for 24 hrs by MTT assay). Conditions: MOLT-4, 24 h.
Assay type: functional, cell-based

Row | Structure (SMILES) | IC50
1 | CC(C)[C@H]1NC(=O)[C@@H]2CCCN2C(=O)[C@H]([C@H](C)Cc2ccccc2)NC(=O)[C@@H]2CCCN2C(=O)[C@@H](C(C)C)N(C)C(=O)[C@@H](C(C)C)OC(=O)[C@@H]2CCCN2C(=O)[C@H](C)OC(=O)[C@@H]1C (cyclo([Lac]P[dHiv][dNMeV]P[X1]P[X2])) | 2.5 µM
2 | CC(C)[C@@H]1OC(=O)[C@H](C)[C@@H](C(C)C)NC(=O)[C@@H]2CCCN2C(=O)[C@H]([C@H](C)Cc2ccccc2)NC(=O)[C@@H]2CCCN2C(=O)[C@@H](C(C)C)OC(=O)[C@@H]2CCCN2C(=O)[C@@H](C(C)C)N(C)C1=O | 23 µM
3 | C#CCCC[C@@H]1OC(=O)[C@H](Cc2ccccc2)NC(=O)[C@H](C(C)C)NC(=O)[C@@H]2CCCN2C(=O)[C@@H]2CCCN2C(=O)[C@H](C)OC(=O)[C@@H](C(C)C)N(C)C(=O)[C@H](C(C)C)NC(=O)C1(C)C | 5.9 µM
4 | C=CCCC[C@@H]1OC(=O)[C@H](Cc2ccccc2)NC(=O)[C@H](C(C)C)NC(=O)[C@@H]2CCCN2C(=O)[C@@H]2CCCN2C(=O)[C@H](C)OC(=O)[C@@H](C(C)C)N(C)C(=O)[C@H](C(C)C)NC(=O)C1(C)C | 5.6 µM
5 | CCCCC[C@@H]1OC(=O)[C@H](Cc2ccccc2)NC(=O)[C@H](C(C)C)NC(=O)[C@@H]2CCCN2C(=O)[C@@H]2CCCN2C(=O)[C@H](C)OC(=O)[C@@H](C(C)C)N(C)C(=O)[C@H](C(C)C)NC(=O)C1(C)C | 37 µM
